Test results taken from article PMC5218480 (PLoS ONE, 2017).

System: MV-4-11 cells
Assay: Gene expression microarray analysis (Affymetrix PrimeView) and GSEA
Assay type: cell-based, human
Set-up: RFU PODN (11730768_x_at) / Fold change /veh PODN (11730768_x_at) / RFU LINC00158 (11744669_a_at) / Fold change /veh LINC00158 (11744669_a_at) / RFU DUSP10 (11751237_a_at) / Fold change /veh DUSP10 (11751237_a_at) / RFU ID3 (11757404_x_at) / Fold change /veh ID3 (11757404_x_at) / RFU PLEKHG5 (11737974_s_at) / Fold change /veh PLEKHG5 (11737974_s_at) / RFU LRRC4B (11730491_at) / Fold change /veh LRRC4B (11730491_at) / RFU GIMAP4 (11747438_a_at) / Fold change /veh GIMAP4 (11747438_a_at) / RFU KRT8 (11758183_x_at) / Fold change /veh KRT8 (11758183_x_at) / RFU CNN1 (11734310_a_at) / Fold change /veh CNN1 (11734310_a_at) / RFU VPS37D (11726825_at) / Fold change /veh VPS37D (11726825_at) / RFU C10orf10 (11716522_x_at) / Fold change /veh C10orf10 (11716522_x_at) / RFU KIR2DL2 /// KIR2DL4 /// KIR2DL5A /// KIR2DL5B /// KIR2DS1 /// KIR2DS2 /// KIR2DS3 /// KIR2DS4 /// KIR3DL3 /// KIR3DL3 /// KIR3DS1 (11738374_at) / Fold change /veh KIR2DL2 /// KIR2DL4 /// KIR2DL5A /// KIR2DL5B /// KIR2DS1 /// KIR2DS2 /// KIR2DS3 /// KIR2DS4 /// KIR3DL3 /// KIR3DL3 /// KIR3DS1 (11738374_at) / RFU C1QL1 (11718748_at) / Fold change /veh C1QL1 (11718748_at) / RFU TMPRSS4 (11747572_a_at) / Fold change /veh TMPRSS4 (11747572_a_at) / RFU HAMP (11756126_x_at) / Fold change /veh HAMP (11756126_x_at) / RFU RNFT2 (11725882_a_at) / Fold change /veh RNFT2 (11725882_a_at) / RFU NR4A2 (11747474_a_at) / Fold change /veh NR4A2 (11747474_a_at) / RFU ABCC12 (11746883_a_at) / Fold change /veh ABCC12 (11746883_a_at) / RFU TMEM136 (11760407_x_at) / Fold change /veh TMEM136 (11760407_x_at) / RFU CLDN22 /// WWC2 (11732394_at) / Fold change /veh CLDN22 /// WWC2 (11732394_at) / RFU HLA-DPB1 (11760878_x_at) / Fold change /veh HLA-DPB1 (11760878_x_at) / RFU SPINT1 (11716480_a_at) / Fold change /veh SPINT1 (11716480_a_at) / RFU GAP43 (11754022_s_at) / Fold change /veh GAP43 (11754022_s_at) / RFU A4GNT (11735810_at) / Fold change /veh A4GNT (11735810_at) / RFU PRB3 (11715151_x_at) / Fold change /veh PRB3 (11715151_x_at) / RFU TUBB4B (11761932_at) / Fold change /veh TUBB4B (11761932_at) / RFU CAPN14 (11732068_a_at) / Fold change /veh CAPN14 (11732068_a_at) / RFU TMCC2 (11721928_a_at) / Fold change /veh TMCC2 (11721928_a_at) / RFU IRGQ (11745062_a_at) / Fold change /veh IRGQ (11745062_a_at) / RFU FAM174B (11720279_a_at) / Fold change /veh FAM174B (11720279_a_at) / RFU TMPRSS4 (11748680_a_at) / Fold change /veh TMPRSS4 (11748680_a_at) / RFU FAM212B (11763350_a_at) / Fold change /veh FAM212B (11763350_a_at) / RFU PLEKHG5 (11743358_a_at) / Fold change /veh PLEKHG5 (11743358_a_at) / RFU ZSCAN30 (11745921_a_at) / Fold change /veh ZSCAN30 (11745921_a_at) / RFU CMKLR1 (11741424_a_at) / Fold change /veh CMKLR1 (11741424_a_at) / RFU LOC101060620 /// MAPK8IP1 (11723275_at) / Fold change /veh LOC101060620 /// MAPK8IP1 (11723275_at) / RFU SPTSSB (11747773_x_at) / Fold change /veh SPTSSB (11747773_x_at) / RFU PRSS12 (11739890_at) / Fold change /veh PRSS12 (11739890_at) / RFU BIN1 (11741810_x_at) / Fold change /veh BIN1 (11741810_x_at) / RFU WNT11 (11732464_a_at) / Fold change /veh WNT11 (11732464_a_at) / RFU C10orf10 (11716521_a_at) / Fold change /veh C10orf10 (11716521_a_at) / RFU C5orf56 (11738089_at) / Fold change /veh C5orf56 (11738089_at) / RFU CYB561 (11721691_x_at) / Fold change /veh CYB561 (11721691_x_at) / RFU ANKRD19P (11752326_a_at) / Fold change /veh ANKRD19P (11752326_a_at) / RFU OR2T12 /// OR2T33 /// OR2T8 (11738714_s_at) / Fold change /veh OR2T12 /// OR2T33 /// OR2T8 (11738714_s_at) / RFU VCAN (11748164_a_at) / Fold change /veh VCAN (11748164_a_at) / RFU JSRP1 (11732532_at) / Fold change /veh JSRP1 (11732532_at) / RFU KRTAP10-11 (11738290_x_at) / Fold change /veh KRTAP10-11 (11738290_x_at) / RFU MYO3A (11730013_a_at) / Fold change /veh MYO3A (11730013_a_at) / RFU EBF3 (11725865_a_at) / Fold change /veh EBF3 (11725865_a_at) / RFU CAMK2N1 (11719241_x_at) / Fold change /veh CAMK2N1 (11719241_x_at) / RFU C5orf56 (11738088_a_at) / Fold change /veh C5orf56 (11738088_a_at) / RFU OLFML3 (11715873_a_at) / Fold change /veh OLFML3 (11715873_a_at) / RFU LOC100653217 /// NTM (11731650_a_at) / Fold change /veh LOC100653217 /// NTM (11731650_a_at) / RFU MAPK11 (11762145_a_at) / Fold change /veh MAPK11 (11762145_a_at) / RFU FIZ1 (11724087_x_at) / Fold change /veh FIZ1 (11724087_x_at) / RFU OASL (11726364_x_at) / Fold change /veh OASL (11726364_x_at) / RFU SOX15 (11748057_x_at) / Fold change /veh SOX15 (11748057_x_at) / RFU CD79A (11719716_a_at) / Fold change /veh CD79A (11719716_a_at) / RFU HIST1H1D (11736915_at) / Fold change /veh HIST1H1D (11736915_at) / RFU CASKIN2 (11723855_a_at) / Fold change /veh CASKIN2 (11723855_a_at) / RFU LOC730098 (11760151_x_at) / Fold change /veh LOC730098 (11760151_x_at) / RFU OR4N2 (11742367_at) / Fold change /veh OR4N2 (11742367_at) / RFU PRRT2 (11749266_a_at) / Fold change /veh PRRT2 (11749266_a_at) / RFU SNX32 (11753110_a_at) / Fold change /veh SNX32 (11753110_a_at) / RFU CDHR5 (11726645_a_at) / Fold change /veh CDHR5 (11726645_a_at) / RFU RCAN1 (11760418_a_at) / Fold change /veh RCAN1 (11760418_a_at) / RFU FAM167A (11723789_a_at) / Fold change /veh FAM167A (11723789_a_at) / RFU FAM26E (11764081_at) / Fold change /veh FAM26E (11764081_at) / RFU ISYNA1 (11749810_s_at) / Fold change /veh ISYNA1 (11749810_s_at) / RFU ACY1 (11761880_at) / Fold change /veh ACY1 (11761880_at) / RFU 11764098_at / Fold change /veh 11764098_at / RFU SAMD14 (11745864_x_at) / Fold change /veh SAMD14 (11745864_x_at) / RFU NPB (11741838_a_at) / Fold change /veh NPB (11741838_a_at) / RFU TMPRSS6 (11731388_a_at) / Fold change /veh TMPRSS6 (11731388_a_at) / RFU KRTAP10-2 (11738614_at) / Fold change /veh KRTAP10-2 (11738614_at) / RFU ARHGAP8 /// PRR5-ARHGAP8 (11727945_x_at) / Fold change /veh ARHGAP8 /// PRR5-ARHGAP8 (11727945_x_at) / RFU KRTAP5-7 /// NADSYN1 (11734609_at) / Fold change /veh KRTAP5-7 /// NADSYN1 (11734609_at) / RFU RASL12 (11751679_a_at) / Fold change /veh RASL12 (11751679_a_at) / RFU CDKN2B (11736163_a_at) / Fold change /veh CDKN2B (11736163_a_at) / RFU PRF1 (11729649_at) / Fold change /veh PRF1 (11729649_at) / RFU, ZNF638 /// ZNF638-IT1 / Fold change vs veh, ZNF638 /// ZNF638-IT1 / RFU, PANK3 / Fold change vs veh, PANK3 / RFU, SH3YL1 / Fold change vs veh, SH3YL1 / RFU, ZEB2 / Fold change vs veh, ZEB2 / RFU, NRIP1 / Fold change vs veh, NRIP1 / RFU, PTTG1IP / Fold change vs veh, PTTG1IP / RFU, CAPN2 / Fold change vs veh, CAPN2 / RFU, MED14 / Fold change vs veh, MED14 / RFU, SNORA58 / Fold change vs veh, SNORA58 / RFU, C1orf63 / Fold change vs veh, C1orf63 / RFU, LRRFIP1 / Fold change vs veh, LRRFIP1 / RFU, NDUFAF7 / Fold change vs veh, NDUFAF7 / RFU, SLC12A2 / Fold change vs veh, SLC12A2 / RFU, IBTK / Fold change vs veh, IBTK / RFU, ESF1 / Fold change vs veh, ESF1 / Fold change vs veh, TMEM50B / RFU, TAOK1 / Fold change vs veh, TAOK1 / RFU, ACBD3 / Fold change vs veh, ACBD3 / RFU, TMA16 / Fold change vs veh, TMA16 / RFU, RWDD3 / Fold change vs veh, RWDD3 / RFU, BCAT1 / Fold change vs veh, BCAT1 / RFU, EDEM3 / Fold change vs veh, EDEM3 / RFU, TMEM33 / Fold change vs veh, TMEM33 / RFU, WDR75 / Fold change vs veh, WDR75 / RFU, AHCTF1 / Fold change vs veh, AHCTF1 / RFU, TFRC / Fold change vs veh, TFRC / RFU, ZDHHC17 / Fold change vs veh, ZDHHC17 / RFU, NOM1 / Fold change vs veh, NOM1 / RFU, ARL8B / Fold change vs veh, ARL8B / RFU, ZBTB11 / Fold change vs veh, ZBTB11 / RFU, TAMM41 / Fold change vs veh, TAMM41 / RFU, KIAA1704 /// LOC100996395 / Fold change vs veh, KIAA1704 /// LOC100996395 / RFU, ING1 / Fold change vs veh, ING1 / RFU, TRMT61B / Fold change vs veh, TRMT61B / RFU, FUBP3 / Fold change vs veh, FUBP3 / RFU, TP53 / Fold change vs veh, TP53 / RFU, TNKS2 / Fold change vs veh, TNKS2 / RFU, ZFP14 / Fold change vs veh, ZFP14 / RFU, ACTR2 / Fold change vs veh, ACTR2 / RFU, PPP3R1 / Fold change vs veh, PPP3R1 / RFU, PIK3R1 / Fold change vs veh, PIK3R1 / RFU, HNRNPA1 / Fold change vs veh, HNRNPA1 / RFU, RNF170 / Fold change vs veh, RNF170 / RFU, ZNF28 / Fold change vs veh, ZNF28 / RFU, RNGTT / Fold change vs veh, RNGTT / RFU, OGT / Fold change vs veh, OGT / RFU, BRD1 / Fold change vs veh, BRD1 / RFU, MARS / Fold change vs veh, MARS / RFU, ZNF655 / Fold change vs veh, ZNF655 / RFU, FAHD1 / Fold change vs veh, FAHD1 / RFU, BDP1 / Fold change vs veh, BDP1 / RFU, LRRCC1 / Fold change vs veh, LRRCC1 / RFU, ARID1A / Fold change vs veh, ARID1A / RFU, ZNF146 / Fold change vs veh, ZNF146 / RFU, ZNF330 / Fold change vs veh, ZNF330 / RFU, GPN3 / Fold change vs veh, GPN3 / RFU, C9orf123 / Fold change vs veh, C9orf123 / RFU, N4BP2L2 / Fold change vs veh, N4BP2L2 / RFU, ARFIP1 / Fold change vs veh, ARFIP1 / RFU, FAM179B / Fold change vs veh, FAM179B / RFU, BCL10 / Fold change vs veh, BCL10 / RFU, UHRF1BP1L / Fold change vs veh, UHRF1BP1L / RFU, BET1 / Fold change vs veh, BET1 / RFU, CNOT2 / Fold change vs veh, CNOT2 / RFU, ZNF268 / Fold change vs veh, ZNF268 / Fold change vs veh, ZNF507 / RFU, DGCR2 / Fold change vs veh, DGCR2 / RFU, WDSUB1 / Fold change vs veh, WDSUB1 / Fold change vs veh, HSP90B1 /// MIR3652 / RFU, ADSS / Fold change vs veh, ADSS / RFU, GK / Fold change vs veh, GK / RFU, ZNF148 / Fold change vs veh, ZNF148 / RFU, TAF9 / Fold change vs veh, TAF9 / RFU, SLC1A5 / Fold change vs veh, SLC1A5 / RFU, SLMO2 / Fold change vs veh, SLMO2 / RFU, ABCC4 / Fold change vs veh, ABCC4 / RFU, LOC101060439 /// RAP1B / Fold change vs veh, LOC101060439 /// RAP1B / RFU, RFX7 / Fold change vs veh, RFX7 / RFU, GTPBP10 / Fold change vs veh, GTPBP10 / RFU, CNEP1R1 / Fold change vs veh, CNEP1R1 / RFU, BIVM-ERCC5 /// ERCC5 / Fold change vs veh, BIVM-ERCC5 /// ERCC5 / RFU, ILF3 / Fold change vs veh, ILF3 / RFU 11762660_at / Fold change /veh 11762660_at / RFU VCAN (11757783_s_at) / Fold change /veh VCAN (11757783_s_at) / RFU DDX43 (11728927_at) / Fold change /veh DDX43 (11728927_at) / RFU KRT8 (11758188_x_at) / Fold change /veh KRT8 (11758188_x_at) / RFU NKD1 (11759106_at) / Fold change /veh NKD1 (11759106_at) / RFU SRD5A1 (11742802_a_at) / Fold change /veh SRD5A1 (11742802_a_at) / RFU TPSAB1 /// TPSB2 (11721975_s_at) / Fold change /veh TPSAB1 /// TPSB2 (11721975_s_at) / RFU GSTM3 (11746129_a_at) / Fold change /veh GSTM3 (11746129_a_at) / RFU IL23R (11737362_x_at) / Fold change /veh IL23R (11737362_x_at) / RFU TMEM51 (11727254_a_at) / Fold change /veh TMEM51 (11727254_a_at) / RFU PIWIL2 (11732686_x_at) / Fold change /veh PIWIL2 (11732686_x_at) / RFU ORM1 (11744905_x_at) / Fold change /veh ORM1 (11744905_x_at) / RFU CCDC152 (11743942_at) / Fold change /veh CCDC152 (11743942_at) / RFU ECM1 (11717891_a_at) / Fold change /veh ECM1 (11717891_a_at) / RFU IL23R (11748794_a_at) / Fold change /veh IL23R (11748794_a_at) / RFU TNFAIP8L3 (11732012_x_at) / Fold change /veh TNFAIP8L3 (11732012_x_at) / RFU MBOAT4 (11741988_at) / Fold change /veh MBOAT4 (11741988_at) / RFU 11764193_at / Fold change /veh 11764193_at / RFU TMEM53 (11763286_at) / Fold change /veh TMEM53 (11763286_at) / RFU MAGEB2 (11727129_at) / Fold change /veh MAGEB2 (11727129_at) / RFU TMEM200A (11744735_a_at) / Fold change /veh TMEM200A (11744735_a_at) / RFU CCDC152 (11751479_a_at) / Fold change /veh CCDC152 (11751479_a_at) / RFU FAM211A (11726209_a_at) / Fold change /veh FAM211A (11726209_a_at) / RFU RGS16 (11746705_a_at) / Fold change /veh RGS16 (11746705_a_at) / RFU VCAN (11755009_s_at) / Fold change /veh VCAN (11755009_s_at) / RFU RHOB (11743442_s_at) / Fold change /veh RHOB (11743442_s_at) / RFU RGS16 (11720943_a_at) / Fold change /veh RGS16 (11720943_a_at) / RFU RGS16 (11720944_at) / Fold change /veh RGS16 (11720944_at) / RFU, VPS4B / Fold change vs veh, VPS4B / RFU, CREB1 / Fold change vs veh, CREB1 / RFU, DNAJC13 / Fold change vs veh, DNAJC13 / RFU, GNAQ / Fold change vs veh, GNAQ / RFU, CDK5R1 / Fold change vs veh, CDK5R1 / RFU, ZRANB3 / Fold change vs veh, ZRANB3 / RFU, CUL4A / Fold change vs veh, CUL4A / RFU, CCNY / Fold change vs veh, CCNY / RFU, UFL1 / Fold change vs veh, UFL1 / RFU, COG3 / Fold change vs veh, COG3 / RFU, DIAPH2 / Fold change vs veh, DIAPH2 / RFU, SKA2 / Fold change vs veh, SKA2 / RFU, AFF3 / Fold change vs veh, AFF3 / RFU, LMF1 / Fold change vs veh, LMF1 / RFU, IPO11 / Fold change vs veh, IPO11 / RFU, DFFB / Fold change vs veh, DFFB / RFU, FOXP1 / Fold change vs veh, FOXP1 / RFU, CARD8 / Fold change vs veh, CARD8 / RFU, STRN3 / Fold change vs veh, STRN3 / RFU, ADK / Fold change vs veh, ADK / RFU, RASSF2 / Fold change vs veh, RASSF2 / RFU, WIPF1 / Fold change vs veh, WIPF1 / RFU, LARP1B / Fold change vs veh, LARP1B / RFU, RASA1 / Fold change vs veh, RASA1 / RFU, RB1 / Fold change vs veh, RB1 / RFU, PPFIA1 / Fold change vs veh, PPFIA1 / RFU, MAT2A / Fold change vs veh, MAT2A / RFU, CCT5 / Fold change vs veh, CCT5 / RFU, WDR92 / Fold change vs veh, WDR92 / RFU, CUX1 / Fold change vs veh, CUX1 / RFU, TTC7A / Fold change vs veh, TTC7A / RFU, TMEM135 / Fold change vs veh, TMEM135 / RFU, DEPTOR / Fold change vs veh, DEPTOR / RFU, CPM / Fold change vs veh, CPM / RFU, DNAJB6 / Fold change vs veh, DNAJB6 / RFU, CACNA2D3 / Fold change vs veh, CACNA2D3 / RFU, DTX4 / Fold change vs veh, DTX4 / RFU, TFCP2 / Fold change vs veh, TFCP2 / RFU, GMCL1 /// GMCL1P1 / Fold change vs veh, GMCL1 /// GMCL1P1 / RFU, AEBP2 / Fold change vs veh, AEBP2 / RFU, SNHG1 /// SNORD22 /// SNORD25 /// SNORD26 /// SNORD27 /// SNORD28 /// SNORD29 /// SNORD31 / Fold change vs veh, SNHG1 /// SNORD22 /// SNORD25 /// SNORD26 /// SNORD27 /// SNORD28 /// SNORD29 /// SNORD31 / Fold change (Aza/veh), C12orf56 (ProbeSet 11735607_a_at) / Fold change (ACY-1035/veh), C12orf56 (ProbeSet 11735607_a_at) / Fold change (Aza/veh), FGFR1OP (ProbeSet 11751329_s_at) / Fold change (ACY-1035/veh), FGFR1OP (ProbeSet 11751329_s_at) / Fold change (Aza/veh), VPS36 (ProbeSet 11739960_a_at) / Fold change (ACY-1035/veh), VPS36 (ProbeSet 11739960_a_at) / RFU SYPL1 (11715823_x_at) / Fold change /veh SYPL1 (11715823_x_at) / RFU IGFBP7 (11715501_s_at) / Fold change /veh IGFBP7 (11715501_s_at) / RFU REEP3 (11722064_at) / Fold change /veh REEP3 (11722064_at) / RFU IGLL1 (11728026_x_at) / Fold change /veh IGLL1 (11728026_x_at): dose or concentration left out as unconfirmed
Conditions: ProbeSet 11755436_x_at; LIST B

With Nc1ncn([C@@H]2O[C@H](CO)[C@@H](O)[C@H]2O)c(=O)n1 [azacitidine] the “Fold change vs veh, ARID1A” value was 1.10.
